Source: patent US11584763B2, “Chromenopyridine derivatives as phosphatidylinositol phosphate kinase inhibitors” (HIBERCELL, INC., priority 2017, dated 2023)

What was measured:
Assay type in all cases: biochemical
[1] = biological target: T1, PIP4K 2A (Homo sapiens, UniProt P48426); test: Kinase Assay PIP4K2 A (PIP4KtypeIIA inhibition assay); parameters: made in house; host or cells: E. coli; conditions: compounds listed under IC50 bin headings
T1 sequence (P48426 1-406): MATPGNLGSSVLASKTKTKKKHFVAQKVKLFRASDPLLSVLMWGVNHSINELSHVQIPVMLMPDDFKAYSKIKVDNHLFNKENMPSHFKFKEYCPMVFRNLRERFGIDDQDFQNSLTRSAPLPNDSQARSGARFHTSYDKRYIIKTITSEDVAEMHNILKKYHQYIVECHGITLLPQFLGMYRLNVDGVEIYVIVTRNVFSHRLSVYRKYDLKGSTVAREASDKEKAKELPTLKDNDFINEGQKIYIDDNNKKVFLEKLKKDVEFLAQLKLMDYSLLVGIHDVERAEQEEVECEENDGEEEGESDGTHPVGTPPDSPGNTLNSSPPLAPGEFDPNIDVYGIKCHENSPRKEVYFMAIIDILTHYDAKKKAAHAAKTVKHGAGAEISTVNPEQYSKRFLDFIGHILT
Method in brief: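 GST-tagged enzyme from E. coli at 0.5 nM final was preincubated with compound for 1 h at 27 C, then reacted with 10 uM ATP, 80 uM PI5P and DOPE carrier in 50 mM HEPES pH 7.3, 5% DMSO. After 1 h, ADP was measured by ADP-Glo luminescence against a calibration curve. IC50 was fitted from % residual activity.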

[2] = biological target: T2, PIP4K2B (Homo sapiens, UniProt P78356); test: Trans-FI P kinase assay PIP4K2B (PIP4KtypeIIB inhibition assay); conditions: compounds listed under IC50 bin headings; 100 uM GTP; read-out: Trans-FI P kinase assays: PIP4K2B IC50
T2 construct: made in house; host or cells: E. coli
T2 sequence (P78356 1-416): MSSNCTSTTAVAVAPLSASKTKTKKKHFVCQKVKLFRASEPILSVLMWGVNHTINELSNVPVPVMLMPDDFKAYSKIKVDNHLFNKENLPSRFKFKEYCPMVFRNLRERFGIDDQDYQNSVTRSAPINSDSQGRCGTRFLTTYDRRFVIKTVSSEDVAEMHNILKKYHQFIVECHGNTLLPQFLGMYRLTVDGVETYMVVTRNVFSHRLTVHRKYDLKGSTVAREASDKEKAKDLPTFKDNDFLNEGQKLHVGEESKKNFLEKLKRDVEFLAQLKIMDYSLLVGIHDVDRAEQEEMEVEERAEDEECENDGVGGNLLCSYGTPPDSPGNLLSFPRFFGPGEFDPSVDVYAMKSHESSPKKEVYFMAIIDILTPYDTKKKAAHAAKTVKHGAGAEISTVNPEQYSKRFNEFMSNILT
Method in brief: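 GST-tagged human PIP4K2B (5 nM, E. coli-expressed) preincubated 1 h at 27 C with compound (top 4.8 uM, 5% DMSO), then reacted 2 h with 100 uM GTP and 80 uM PI5P/DOPE vesicles in HEPES pH 7.3, MgCl2, Triton X-100. GDP detected by Transcreener FI fluorescence via calibration curve; IC50 from % activity vs log[inhibitor].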

[3] = biological target: T1, PIP4K 2A; test: ADP-glo kinase assay PIP4K 2A; parameters: 4 nM PIP4K2A (full length protein, SignalChem); purchased SignalChem; conditions: compounds listed under IC50 bin headings
Method in brief: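 Full-length PIP4K2A was pre-incubated 15 min at RT with compound in 20 mM MOPS pH 7.2, 25 mM MgCl2, 0.005% Tween 20. The enzyme mix held 4 nM kinase and 100 μM PI(5)P diC8, and ATP was added from a 60 μM solution. After 1 h at RT, ADP-Glo luminescence gave % inhibition versus DMSO, fitted to IC50 over 10 threefold dilutions.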

Compound: CC1Oc2cc(N3CCCC3=O)ccc2-c2cnc(Nc3cncc(Nc4ccccn4)c3)cc21 (stereo not drawn) [Example 130, 1-(5-methyl-3-((5-(pyridin-2-ylamino)pyridin-3-yl)amino)-5H-chromeno[4,3-c]pyridin-8-yl)pyrrolidin-2-one]
- IC50 [1]: 1 to 10 nM
- IC50 [2]: 10 to 100 nM
- IC50 [3]: 1 to 10 nM

Compound: CC1Oc2cc(N3CCCC3=O)ccc2-c2cnc(Nc3cncc(Nc4cccnn4)c3)cc21 (stereo not drawn) [Example 131, 1-(5-methyl-3-((5-(pyridazin-3-ylamino)pyridin-3-yl)amino)-5H-chromeno[4,3-c]pyridin-8-yl)pyrrolidin-2-one]
- IC50 [1]: ≤ 1 nM
- IC50 [2]: 10 to 100 nM
- IC50 [3]: 1 to 10 nM

Compound: CC1(C)Oc2cc(N3CCCC3=O)c(F)cc2-c2cnc(Nc3cnc4c(c3)N3C(=O)CC[C@H]3CO4)cc21 [Example 148, (S)-2-((9-fluoro-5,5-dimethyl-8-(2-oxopyrrolidin-1-yl)-5H-chromeno[4,3-c]pyridin-3-yl)amino)-6,6a,7,8-tetrahydro-9H-pyrido[2,3-b]pyrrolo[1,2-d][1,4]oxazin-9-one]
- IC50 [1]: ≤ 1 nM
- IC50 [2]: 1 to 10 nM
- IC50 [3]: ≤ 1 nM

Compound: CC1(C)Oc2cc(N3CCCC3=O)c(F)cc2-c2cnc(Nc3cncc(N4CCNC4=O)c3)cc21 [Example 149, 1-(5-((9-fluoro-5,5-dimethyl-8-(2-oxopyrrolidin-1-yl)-5H-chromeno[4,3-c]pyridin-3-yl)amino)pyridin-3-yl)imidazolidin-2-one]
- IC50 [1]: ≤ 1 nM
- IC50 [2]: 10 to 100 nM
- IC50 [3]: 1 to 10 nM

Compound: CC1(C)Oc2cc(N3CCCC3=O)ccc2-c2cnc(Nc3cnc4c(c3)OCCO4)cc21 [Example 164, 1-(3-((2,3-dihydro-[1,4]dioxino[2,3-b]pyridin-7-yl)amino)-5,5-dimethyl-5H-chromeno[4,3-c]pyridin-8-yl)pyrrolidin-2-one]
- IC50 [1]: ≤ 1 nM
- IC50 [2]: 10 to 100 nM
- IC50 [3]: 1 to 10 nM

Compound: CC1(C)Oc2cc(N3CCCC3=O)c(F)cc2-c2cnc(Nc3cnc4c(c3)OCCO4)cc21 [Example 167, 1-(3-((2,3-dihydro-[1,4]dioxino[2,3-b]pyridin-7-yl)amino)-9-fluoro-5,5-dimethyl-5H-chromeno[4,3-c]pyridin-8-yl)pyrrolidin-2-one]
- IC50 [1]: ≤ 1 nM
- IC50 [2]: 10 to 100 nM
- IC50 [3]: ≤ 1 nM

Compound: COCCC(=O)N1CCN(c2cncc(Nc3cc4c(cn3)-c3ccc(N5CCCC5=O)cc3OC4(C)C)c2)CC1 [Example 170, 1-(3-((5-(4-(3-methoxypropanoyl)piperazin-1-yl)pyridin-3-yl)amino)-5,5-dimethyl-5H-chromeno[4,3-c]pyridin-8-yl)pyrrolidin-2-one]
- IC50 [1]: ≤ 1 nM
- IC50 [2]: 10 to 100 nM
- IC50 [3]: 1 to 10 nM

Compound: COCCC(=O)N1CCN(c2cncc(Nc3cc4c(cn3)-c3cc(F)c(N5CCCC5=O)cc3OC4(C)C)c2)CC1 [Example 173, 1-(9-fluoro-3-((5-(4-(3-methoxypropanoyl)piperazin-1-yl)pyridin-3-yl)amino)-5,5-dimethyl-5H-chromeno[4,3-c]pyridin-8-yl)pyrrolidin-2-one]
- IC50 [1]: 1 to 10 nM
- IC50 [2]: 10 to 100 nM
- IC50 [3]: 1 to 10 nM

Compound: C[C@H]1Oc2cc(N3CCCC3=O)ccc2-c2cnc(Nc3cnc4c(c3)N3C(=O)CC[C@H]3CO4)cc21 [Example 192, (S)-2-(((R)-5-methyl-8-(2-oxopyrrolidin-1-yl)-5H-chromeno[4,3-c]pyridin-3-yl)amino)-6,6a,7,8-tetrahydro-9H-pyrido[2,3-b]pyrrolo[1,2-d][1,4]oxazin-9-one]
- IC50 [1]: ≤ 1 nM
- IC50 [2]: 10 to 100 nM
- IC50 [3]: ≤ 1 nM

Compound: O=C1CCCN1c1ccc2c(c1)OC1(COC1)c1cc(Nc3cnc4c(c3)N3C(=O)CC[C@H]3CO4)ncc1-2 [Example 194, (S)-2-((8-(2-oxopyrrolidin-1-yl)spiro[chromeno[4,3-c]pyridine-5,3′-oxetan]-3-yl)amino)-6,6a,7,8-tetrahydro-9H-pyrido[2,3-b]pyrrolo[1,2-d][1,4]oxazin-9-one]
- IC50 [1]: 1 to 10 nM
- IC50 [2]: 1 to 10 nM
- IC50 [3]: ≤ 1 nM

Compound: O=C1CCCN1c1ccc2c(c1)OC1(CCC1)c1cc(Nc3cnc4c(c3)N3C(=O)CC[C@H]3CO4)ncc1-2 [Example 195, (S)-2-((8-(2-oxopyrrolidin-1-yl)spiro[chromeno[4,3-c]pyridine-5,1′-cyclobutan]-3-yl)amino)-6,6a,7,8-tetrahydro-9H-pyrido[2,3-b]pyrrolo[1,2-d][1,4]oxazin-9-one]
- IC50 [1]: ≤ 1 nM
- IC50 [2]: 1 to 10 nM
- IC50 [3]: ≤ 1 nM

Compound: O=C1CCCN1c1ccc2c(c1)OCc1c(-c3ccncc3)cncc1-2 [Example 202, 1-(4-(pyridin-4-yl)-5H-chromeno[4,3-c]pyridin-8-yl)pyrrolidin-2-one]
- IC50 [1]: 100 to 1000 nM
- IC50 [2]: > 1000 nM
- IC50 [3]: > 1000 nM
